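A five-concentration, 48-hour dose response in 96-well plates underlies each endpoint, interpolated linearly between surrounding concentrations. Here, GI50 denotes the concentration required for 50% inhibition of growth.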 Calls of active or inactive are those of the source. No stated cut-off is given here; in the data, active = GI50 up to about 1.1 µM and inactive = higher.
Experiments:
Test in all cases: growth of human tumour cells (NCI), 48 h
IGROV-1 = test system: IGROV-1
LOX IMVI = test system: LOX IMVI
K562 = test system: K562
SK-OV-3 = test system: SK-OV-3
NCI-H23 = test system: NCI-H23
RXF 393 = test system: RXF 393
UACC-257 = test system: UACC-257
HCT-116 = test system: HCT-116
HOP-92 = test system: HOP-92
SNB-19 = test system: SNB-19
SNB-75 = test system: SNB-75
NCI-H460 = test system: NCI-H460
SF-268 = test system: SF-268
SK-MEL-28 = test system: SK-MEL-28
SF-295 = test system: SF-295
NCI-H522 = test system: NCI-H522
CAKI-1 = test system: CAKI-1

Measured: GI50

N#CC1C2CCC3(CC2CCN1C(=O)c1ccccc1)OCCO3 (stereo not drawn)
inactive: IGROV-1 > 100 µM | LOX IMVI > 100 µM | K562 > 100 µM | SK-OV-3 > 100 µM | NCI-H23 > 100 µM | RXF 393 > 100 µM | UACC-257 > 100 µM | HCT-116 > 100 µM | HOP-92 > 100 µM | SNB-19 > 100 µM | SNB-75 > 100 µM | NCI-H460 > 100 µM | SF-268 > 100 µM | SK-MEL-28 > 100 µM | SF-295 > 100 µM

COc1cc2c(cc1OC)[C@]1(O)C(=O)c3ccc4c(c3O[C@@H]1CO2)C[C@H](C(C)(C)O)O4
inactive: IGROV-1 > 100 µM | LOX IMVI 11.1 µM | K562 17.1 µM | SK-OV-3 > 100 µM | NCI-H23 2.65 µM | RXF 393 8.3 µM | UACC-257 6.95 µM | HCT-116 26.2 µM | HOP-92 33.6 µM | NCI-H522 5.86 µM | SNB-19 > 100 µM | SNB-75 22 µM | NCI-H460 > 100 µM | SK-MEL-28 > 100 µM

O=C(CN(Cc1ccccc1)Cc1ccccc1)N1CCc2c([nH]c3ccccc23)C1c1cccnc1 (stereo not drawn)
inactive: CAKI-1 4.85 µM | IGROV-1 29.7 µM | LOX IMVI 7.73 µM | K562 3.17 µM | SK-OV-3 80.9 µM | NCI-H23 5.41 µM | UACC-257 13.2 µM | HCT-116 3.74 µM | HOP-92 2.79 µM | NCI-H522 4.8 µM | SNB-19 19.5 µM | SNB-75 7.36 µM | NCI-H460 5.58 µM | SF-268 9.51 µM | SK-MEL-28 21.2 µM | SF-295 6.64 µM

N#CC(NNC(=O)Cc1ccccc1)c1ccc([N+](=O)[O-])cc1 (stereo not drawn)
inactive: IGROV-1 > 100 µM | LOX IMVI > 100 µM | K562 > 100 µM | SK-OV-3 > 100 µM | NCI-H23 > 100 µM | RXF 393 > 100 µM | UACC-257 > 100 µM | HCT-116 > 100 µM | HOP-92 55.3 µM | NCI-H522 > 100 µM | SNB-75 65.6 µM | NCI-H460 > 100 µM | SF-268 > 100 µM | SK-MEL-28 > 100 µM | SF-295 > 100 µM

CC(Oc1ccc(OCC2CCCCC2)cc1)C(=O)OCC(=O)c1ccc(-c2ccccc2)cc1 (stereo not drawn)
inactive: IGROV-1 > 100 µM | LOX IMVI > 100 µM | K562 > 100 µM | SK-OV-3 > 100 µM | NCI-H23 > 100 µM | RXF 393 > 100 µM | UACC-257 > 100 µM | HCT-116 > 100 µM | NCI-H522 > 100 µM | SNB-19 > 100 µM | SNB-75 > 100 µM | NCI-H460 > 100 µM | SF-268 > 100 µM | SK-MEL-28 > 100 µM | SF-295 > 100 µM

CC(C)(C)C(=O)O[C@@H]1COC2C(O)COC21 (stereo partly drawn)
inactive: CAKI-1 > 100 µM | IGROV-1 > 100 µM | LOX IMVI > 100 µM | K562 > 100 µM | NCI-H23 > 100 µM | RXF 393 > 100 µM | UACC-257 > 100 µM | HCT-116 > 100 µM | HOP-92 > 100 µM | NCI-H522 > 100 µM | SNB-19 > 100 µM | SNB-75 > 100 µM | NCI-H460 > 100 µM | SF-268 > 100 µM | SK-MEL-28 > 100 µM | SF-295 > 100 µM

CC(C)C(/C=C/c1ccccc1)=N\NC(=O)N/N=C(/C=C/c1ccccc1)C(C)C
inactive: CAKI-1 6.98 µM | IGROV-1 39.1 µM | LOX IMVI 32.4 µM | K562 21.2 µM | SK-OV-3 40.2 µM | NCI-H23 53.7 µM | UACC-257 44 µM | HCT-116 19.1 µM | HOP-92 20.7 µM | NCI-H522 17.1 µM | SNB-19 37.7 µM | SNB-75 25.8 µM | NCI-H460 14.4 µM | SF-268 48 µM | SK-MEL-28 74 µM | SF-295 39.9 µM

Cc1cccc(CC(C)(C)C)c1NC(=O)C(=O)C(C(=O)c1ccc2ccccc2c1)C1OC(=O)c2ccccc21 (stereo not drawn)
inactive: CAKI-1 19.2 µM | IGROV-1 16.7 µM | LOX IMVI 11.5 µM | SK-OV-3 26.5 µM | NCI-H23 6.35 µM | RXF 393 3.4 µM | UACC-257 12 µM | HCT-116 6.73 µM | HOP-92 1.14 µM | NCI-H522 9.53 µM | SNB-19 10.6 µM | NCI-H460 4.13 µM | SF-268 8.53 µM | SK-MEL-28 5.58 µM | SF-295 4.55 µM

CC1=C(C(=O)NCc2ccccc2)C(c2ccc([N+](=O)[O-])cc2)C(C(=O)NCc2ccccc2)=C(C)N1
inactive: CAKI-1 26.7 µM | IGROV-1 56.5 µM | LOX IMVI 18.2 µM | K562 31.2 µM | NCI-H23 39.7 µM | RXF 393 31.6 µM | UACC-257 38.6 µM | HCT-116 21.9 µM | HOP-92 26.8 µM | NCI-H522 28.5 µM | SNB-19 65.2 µM | SNB-75 40.4 µM | NCI-H460 35.1 µM | SF-268 50.7 µM | SK-MEL-28 37.7 µM | SF-295 37.1 µM

— ChEMBL document CHEMBL1201862, “PubChem BioAssay data set” (2004)
